{"source": "patent US10344002B2", "about": "“Compositions and methods for treating metabolic disorders” (NuSirt Sciences, Inc., priority 2016, dated 2019)", "system": "AMPK", "test": "Western blot, P-AMPK/AMPK in C2C12 muscle cells", "assay_type": "cell-based", "conditions": "4 hours; for ratio of P-AMPK/AMPK (FIG. 6A): control approximately 0.75", "experimental": "Cell Culture: C2C12 muscle cells were seeded with 400,000 cells per well on 6-well tissue culture plates in Dulbecco's modified eagle's medium (DMEM) containing 10% fetal bovine serum (FBS) and antibiotics (1% penicillin-streptomycin) at 37° C. in 5% CO2. After reaching confluency (24 hours), cells were induced to differentiate with DMEM containing 2% Horse Serum for 5 to 6 days until myotubes were fully formed. Cells were then treated with indicated concentration of Compound 2 for 4 and 24 hours.\nCompound 2 was dissolved in 100% DMSO to a stock concentration of 100 mM. This stock was further diluted to indicated concentrations in DMEM media.\nWestern blots: Phospho-AMPK, AMPK, Phospho-ACC, ACC antibodies were obtained from Cell Signaling (Danvers, Mass.). Sir2 antibody was obtained from MyBiosource (San Diego, Calif.). Protein levels of cell extracts were measured by BCA kit (Thermo Scientific, Pittsburgh, Pa.). For Western blot, 10-50 μg protein was resolved on 4-15% gradient polyacrylaminde gels (Criterion precast gel, Bio-Rad Laboratories, Hercules, Calif.), transferred to either PVDF or nitrocellulose membranes, incubated in blocking buffer (3% BSA or 5% non-fat dry milk in TBS) and then incubated with primary antibody (1:1000 dilution), washed and incubated with horseradish peroxidase- or fluorescence-conjugated secondary antibody (1:10000 dilution). Visualization was conducted using BioRad ChemiDoc instrumentation and software (Bio-Rad Laboratories, Hercules, Calif.) and band intensity was assessed using Image Lab 4.0 with correction for background and loading controls."}
{"smiles": "CC(C)C[C@@H]1NC(N=C(N)N)=NC1=O", "note": "[Compound 2]", "values": [{"measurement": "effect on the ratio of P-AMPK/AMPK", "setting": "10 nM", "result": "no effect"}, {"measurement": "ratio of P-AMPK/AMPK (FIG. 6A)", "setting": "10 nM", "result": "approximately 0.65"}, {"measurement": "ratio of P-AMPK/AMPK (FIG. 6A)", "setting": "100 nM", "result": "approximately 1.35"}, {"measurement": "increase in the ratio of P-AMPK/AMPK", "setting": "100 nM, p=0.03", "result": 78, "unit": "%"}]}
